Data from article PMC4972871, “Optimization of Electrospray Ionization by Statistical Design of Experiments and Response Surface Methodology: Protein–Ligand Equilibrium Dissociation Constant Determinations” (Journal of the American Society for Mass Spectrometry, 2016).

Tests used:
[1] = target: T1, Plasmodium vivax guanylate kinase (PvGK) (Plasmodium vivax, UniProt A5K709); experiment: native ESI-FT-ICR-MS titration (optimized source); confirmed by competition with GMP ([…]); type: binding
T1 construct: gene PVX_099895; Full-length guanylate kinase with an N-terminal 6-histidine tag (23545 Da)
T1 sequence (A5K709 entry or part of it): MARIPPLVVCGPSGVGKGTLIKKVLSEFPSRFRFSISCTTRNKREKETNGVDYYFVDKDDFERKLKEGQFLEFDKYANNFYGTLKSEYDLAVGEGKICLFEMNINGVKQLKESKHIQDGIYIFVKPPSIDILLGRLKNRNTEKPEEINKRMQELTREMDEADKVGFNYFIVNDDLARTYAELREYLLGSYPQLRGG

[2] = target: T1, Plasmodium vivax guanylate kinase (PvGK); experiment: native ESI-FT-ICR-MS titration (optimized source conditions); type: binding

SMILES	Kd [1] [µM]	Kd [2] [µM]
Nc1nc2c(ncn2[C@@H]2O[C@H](COP(=O)(O)OP(=O)(O)O)[C@@H](O)[C@H]2O)c(=O)[nH]1 [GDP]	0.3 ± 0.03	
Nc1nc2c(ncn2[C@@H]2O[C@H](COP(=O)(O)O)[C@@H](O)[C@H]2O)c(=O)[nH]1 [GMP]		1.84 ± 0.11
